One assay addresses T1, human recombinant HDAC1 (Homo sapiens, UniProt Q13547).
T1 construct: purchased Enzo Life Science, Inc. BML-SE456
Nature of the assay: HDAC1 enzyme activity inhibition (HDAC Fluorimetric Drug Discovery Kit). The class given is biochemical. The conditions noted are these: read-out: HDAC1. Put shortly:
(§1)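 Fluorimetric deacetylase read-out: after 30 min with Developer II following a 60 min, 30° C reaction of recombinant enzyme ([…]) with 10 μM substrate, across five-fold serial compound dilutions.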

A further assay has as its target T2, human recombinant HDAC6 (Homo sapiens, UniProt Q9UBN7).
T2 construct: purchased Calbiochem Inc. 382180
T2 sequence (Q9UBN7 1-1215): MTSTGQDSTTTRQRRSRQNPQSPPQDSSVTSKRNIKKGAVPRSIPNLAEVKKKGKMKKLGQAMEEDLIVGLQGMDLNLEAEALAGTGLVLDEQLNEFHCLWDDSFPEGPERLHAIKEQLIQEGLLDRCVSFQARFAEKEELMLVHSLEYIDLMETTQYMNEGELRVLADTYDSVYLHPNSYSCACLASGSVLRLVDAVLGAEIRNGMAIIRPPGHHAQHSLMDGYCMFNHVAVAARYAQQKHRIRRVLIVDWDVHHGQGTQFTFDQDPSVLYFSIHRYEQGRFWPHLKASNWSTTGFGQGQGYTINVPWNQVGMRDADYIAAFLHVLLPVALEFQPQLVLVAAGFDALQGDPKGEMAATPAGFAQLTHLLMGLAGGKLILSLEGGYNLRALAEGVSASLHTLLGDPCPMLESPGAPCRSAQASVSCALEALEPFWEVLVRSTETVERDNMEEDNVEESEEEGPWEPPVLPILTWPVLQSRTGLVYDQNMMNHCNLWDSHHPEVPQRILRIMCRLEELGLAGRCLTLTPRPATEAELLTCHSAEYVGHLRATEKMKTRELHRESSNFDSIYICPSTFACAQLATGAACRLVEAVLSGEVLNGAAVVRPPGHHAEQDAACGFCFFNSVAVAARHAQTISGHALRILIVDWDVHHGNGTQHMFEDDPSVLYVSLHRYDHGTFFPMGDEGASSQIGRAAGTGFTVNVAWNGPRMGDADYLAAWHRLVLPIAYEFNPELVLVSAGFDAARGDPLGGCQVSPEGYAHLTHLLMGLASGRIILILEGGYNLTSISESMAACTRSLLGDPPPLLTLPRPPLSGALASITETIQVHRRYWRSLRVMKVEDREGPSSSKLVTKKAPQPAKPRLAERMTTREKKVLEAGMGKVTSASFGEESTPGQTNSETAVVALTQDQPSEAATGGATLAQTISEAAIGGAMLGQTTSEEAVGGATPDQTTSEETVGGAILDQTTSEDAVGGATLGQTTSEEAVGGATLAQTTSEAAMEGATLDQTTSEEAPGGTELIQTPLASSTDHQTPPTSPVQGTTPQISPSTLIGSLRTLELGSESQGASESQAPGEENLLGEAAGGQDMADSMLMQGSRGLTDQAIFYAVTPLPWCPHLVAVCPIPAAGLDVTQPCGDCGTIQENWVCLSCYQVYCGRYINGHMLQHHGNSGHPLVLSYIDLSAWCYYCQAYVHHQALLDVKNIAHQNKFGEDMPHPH
Nature of the assay: HDAC6 enzyme activity inhibition (HDAC Fluorimetric Drug Discovery Kit). The class given is biochemical. The procedure, abridged: as §1

Where [1] appears, read: human recombinant HDAC1, IC50 calculated with GraphPad Prism.
[2] abbreviates: human recombinant HDAC6, IC50 calculated with GraphPad Prism.
The mark [3] stands for this setting: human recombinant HDAC1, Fluor de Lys substrate, 30° C. 60 minutes.
[4] abbreviates: human recombinant HDAC6, same protocol as HDAC1.

Structures are written as SMILES. Where two headings read alike, the source gives them in different places.

T1 sequence (Q13547 whole entry): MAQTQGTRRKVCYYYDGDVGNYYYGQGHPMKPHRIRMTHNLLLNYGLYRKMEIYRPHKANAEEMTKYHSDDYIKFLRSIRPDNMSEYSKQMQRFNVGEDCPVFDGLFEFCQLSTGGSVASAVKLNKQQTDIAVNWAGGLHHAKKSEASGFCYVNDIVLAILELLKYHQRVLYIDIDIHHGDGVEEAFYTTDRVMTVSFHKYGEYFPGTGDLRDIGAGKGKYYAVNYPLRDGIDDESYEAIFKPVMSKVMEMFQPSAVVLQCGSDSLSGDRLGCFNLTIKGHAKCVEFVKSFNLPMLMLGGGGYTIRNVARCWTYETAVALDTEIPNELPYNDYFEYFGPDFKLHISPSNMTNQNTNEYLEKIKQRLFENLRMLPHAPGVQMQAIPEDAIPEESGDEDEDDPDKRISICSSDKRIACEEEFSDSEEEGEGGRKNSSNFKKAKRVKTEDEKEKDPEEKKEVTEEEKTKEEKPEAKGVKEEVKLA

Consider `CCN1[C@H](C)CN(c2cccc(-c3cn(Cc4ccc(-c5nnc(C(F)F)o5)cc4)nn3)c2)C[C@@H]1C` [Compound 4442], for which the IC50 at human recombinant HDAC1 (setting [1]) is above 50 µM; on human recombinant HDAC6 (setting [2]), 0.0398 µM. Moreover, the “HDAC6 selectivity (fold)” value at human recombinant HDAC6 (HDAC1 IC50 / HDAC6 IC50) is given as 1256 fold.

As to `Fc1cc(-c2nnc(C(F)F)o2)ccc1Cn1cc(C2(F)CCOC2)nn1` (stereo not drawn) [Compound 4283, 2-(difluoromethyl)-5-(3-fluoro-4-((4-(3-fluorotetrahydrofuran-3-yl)-1H-1,2,3-triazol-1-yl)methyl)phenyl)-1,3,4-oxadiazole], the IC50 at human recombinant HDAC1 (setting [1]) was above 50 µM; at human recombinant HDAC6 (setting [2]) it was 0.246 µM. The “HDAC6 selectivity (fold)” value on human recombinant HDAC6 (HDAC1 IC50 / HDAC6 IC50) is given as 203 fold.

Turning to `Fc1cc(-c2nnc(C(F)F)o2)cnc1Cn1cc(-c2ccccc2CN2CCCC2)nn1` [Compound 18823], the IC50 is above 50 µM at human recombinant HDAC1 (setting [3]) and 0.38 µM on human recombinant HDAC6 (setting [4]). Further, at human recombinant HDAC6 (HDAC6 over HDAC1), the “HDAC6 selectivity (fold)” value worked out at 131 fold.

As to `FC(F)c1nnc(-c2ccc(Cn3cc(-c4cncnc4)nn3)nc2)o1` [Compound 3960, 2-(difluoromethyl)-5-(6-((4-(pyrimidin-5-yl)-1H-1,2,3-triazol-1-yl)methyl)pyridin-3-yl)-1,3,4-oxadiazole], the IC50 at human recombinant HDAC1 (setting [1]) is above 50 µM; at human recombinant HDAC6 (setting [2]), 0.105 µM. For the same molecule, on human recombinant HDAC6 (HDAC1 IC50 / HDAC6 IC50), the “HDAC6 selectivity (fold)” value was found to be 473 fold.

Take `FC1CN(Cc2ccc(-c3cn(Cc4ccc(-c5nnc(C(F)F)o5)cn4)nn3)cc2)C1` [Compound 4559, 2-(difluoromethyl)-5-(6-((4-(4-((3-fluoroazetidin-1-yl)methyl)phenyl)-1H-1,2,3-triazol-1-yl)methyl)pyridin-3-yl)-1,3,4-oxadiazole]: the IC50 at human recombinant HDAC1 (setting [3]) is above 50 µM; on human recombinant HDAC6 (setting [4]), 0.0213 µM. Also, on human recombinant HDAC6 (HDAC6 over HDAC1), the “HDAC6 selectivity (fold)” value came out at 2347 fold.

With `O=C(CO)N1CCC(c2cn(Cc3ccc(-c4nnc(C(F)F)o4)cn3)nn2)CC1` [Compound 3813, 1-(4-(1-((5-(5-(difluoromethyl)-1,3,4-oxadiazol-2-yl)pyridin-2-yl)methyl)-1H-1,2,3-triazol-4-yl)piperidin-1-yl)-2-hydroxyethan-1-one], the IC50 was above 50 µM on human recombinant HDAC1 (setting [1]) and 0.3 µM on human recombinant HDAC6 (setting [2]). On human recombinant HDAC6 (HDAC1 IC50 / HDAC6 IC50), the “HDAC6 selectivity (fold)” value is 166 fold.

Take `Fc1ccc(N2CCN(C3CCC3)CC2)cc1-c1cn(Cc2ccc(-c3nnc(C(F)F)o3)cc2)nn1` [Compound 4454, 2-(4-((4-(5-(4-cyclobutylpiperazin-1-yl)-2-fluorophenyl)-1H-1,2,3-triazol-1-yl)methyl)phenyl)-5-(difluoromethyl)-1,3,4-oxadiazol]: the IC50 at human recombinant HDAC1 (setting [1]) was above 50 µM; at human recombinant HDAC6 (setting [2]) it was 0.0791 µM. Also, the “HDAC6 selectivity (fold)” value on human recombinant HDAC6 (HDAC1 IC50 / HDAC6 IC50) was found to be 632 fold.

For `Fc1cc(-c2nnc(C(F)F)o2)ccc1Cn1cc(-c2cn[nH]c2)nn1` [Compound 17261, 2-(4-((4-(1H-pyrazol-4-yl)-1H-1,2,3-triazol-1-yl)methyl)-3-fluorophenyl)-5-(difluoromethyl)-1,3,4-oxadiazole], the IC50 was above 50 µM at human recombinant HDAC1 (setting [3]) and 0.0494 µM on human recombinant HDAC6 (setting [4]). Besides, the “HDAC6 selectivity (fold)” value on human recombinant HDAC6 (HDAC6 over HDAC1) worked out at 1012 fold.

Regarding `FC(F)c1nnc(-c2ccc(Cn3cc(-c4cccc(CN5CCOCC5)c4)nn3)cc2)o1` [Compound 4411, 4-(3-(1-(4-(5-(difluoromethyl)-1,3,4-oxadiazol-2-yl)benzyl)-1H-1,2,3-triazol-4-yl)benzyl)morpholine], the IC50 was above 50 µM at human recombinant HDAC1 (setting [1]) and 0.0755 µM on human recombinant HDAC6 (setting [2]). In addition, the “HDAC6 selectivity (fold)” value at human recombinant HDAC6 (HDAC1 IC50 / HDAC6 IC50) came to 662 fold.

For `O=C(O)c1cccc(-c2cn(Cc3ccc(-c4nnc(C(F)F)o4)cn3)nn2)c1` [Compound 3739], the IC50 at human recombinant HDAC1 (setting [1]) was above 50 µM; at human recombinant HDAC6 (setting [2]) it was 0.0639 µM. In addition, the “HDAC6 selectivity (fold)” value at human recombinant HDAC6 (HDAC1 IC50 / HDAC6 IC50) amounted to 782 fold.

As for `Cc1csc(-c2cn(Cc3ccc(-c4nnc(C(F)F)o4)cc3F)nn2)n1` [Compound 17854, 2-(difluoromethyl)-5-(3-fluoro-4-((4-(4-methylthiazol-2-yl)-1H-1,2,3-triazol-1-yl)methyl)phenyl)-1,3,4-oxadiazole], the IC50 was above 50 µM on human recombinant HDAC1 (setting [3]) and 0.0834 µM on human recombinant HDAC6 (setting [4]). The “HDAC6 selectivity (fold)” value on human recombinant HDAC6 (HDAC6 over HDAC1) is on record as 599 fold.

`CC(C)C(=O)N1CC(c2cn(Cc3ccc(-c4nnc(C(F)F)o4)cn3)nn2)C1` [Compound 3958, 1-(3-(1-((5-(5-(difluoromethyl)-1,3,4-oxadiazol-2-yl)pyridin-2-yl)methyl)-1H-1,2,3-triazol-4-yl)azetidin-1-yl)-2-methylpropan-1-one]: the values for the IC50 at human recombinant HDAC1 (setting [1]) and at human recombinant HDAC6 (setting [2]) were above 50 µM and 0.429 µM, respectively. In addition, at human recombinant HDAC6 (HDAC1 IC50 / HDAC6 IC50), the “HDAC6 selectivity (fold)” value is on record as 116 fold.

In the case of `Fc1cc(-c2nnc(C(F)F)o2)ccc1Cn1cc(-c2ccc(Br)cn2)nn1` [Compound 16928, 2-(4-((4-(5-bromopyridin-2-yl)-1H-1,2,3-triazol-1-yl)methyl)-3-fluorophenyl)-5-(difluoromethyl)-1,3,4-oxadiazole], the values for the IC50 on human recombinant HDAC1 (setting [3]) and at human recombinant HDAC6 (setting [4]) were above 50 µM and 0.0853 µM, respectively. The “HDAC6 selectivity (fold)” value on human recombinant HDAC6 (HDAC6 over HDAC1) stood at 586 fold.

Regarding `Fc1cc(-c2nnc(C(F)F)o2)cnc1Cn1cc(-c2ccccc2CN2CCC2)nn1` [Compound 18822, 2-(6-((4-(2-(azetidin-1-ylmethyl)phenyl)-1H-1,2,3-triazol-1-yl)methyl)-5-fluoropyridin-3-yl)-5-(difluoromethyl)-1,3,4-oxadiazole], the IC50 at human recombinant HDAC1 (setting [3]) is above 50 µM; on human recombinant HDAC6 (setting [4]), 0.505 µM. Further, the “HDAC6 selectivity (fold)” value at human recombinant HDAC6 (HDAC6 over HDAC1) is on record as 98 fold.

In the case of `Fc1cc(-c2nnc(C(F)F)o2)ccc1Cn1cc(-c2ccc3c(c2)CN(C2COC2)CC3)nn1` [Compound 4367, 2-(difluoromethyl)-5-(3-fluoro-4-((4-(2-(oxetan-3-yl)-1,2,3,4-tetrahydroisoquinolin-7-yl)-1H-1,2,3-triazol-1-yl)methyl)phenyl)-1,3,4-oxadiazole], the results for the IC50 at human recombinant HDAC1 (setting [1]) and on human recombinant HDAC6 (setting [2]) were above 50 µM and 0.0413 µM, respectively. Further, the “HDAC6 selectivity (fold)” value on human recombinant HDAC6 (HDAC1 IC50 / HDAC6 IC50) was 1210 fold.

On to `CC(C)N1CCc2cc(-c3cn(Cc4ccc(-c5nnc(C(F)F)o5)cc4F)nn3)sc2C1` [Compound 4501], for which the IC50 on human recombinant HDAC1 (setting [3]) is above 50 µM; at human recombinant HDAC6 (setting [4]) it was 0.137 µM. The “HDAC6 selectivity (fold)” value at human recombinant HDAC6 (HDAC6 over HDAC1) is recorded as 365 fold.

Consider `CCN1Cc2cccc(-c3cn(Cc4ccc(-c5nnc(C(F)F)o5)cc4)nn3)c2C1` [Compound 4530, 2-(difluoromethyl)-5-(4-((4-(2-ethylisoindolin-4-yl)-1H-1,2,3-triazol-1-yl)methyl)phenyl)-1,3,4-oxadiazole], for which the IC50 at human recombinant HDAC1 (setting [3]) was above 50 µM; at human recombinant HDAC6 (setting [4]), 0.111 µM. Besides, on human recombinant HDAC6 (HDAC6 over HDAC1), the “HDAC6 selectivity (fold)” value came to 449 fold.

For the molecule `C[C@@H]1CN(c2cccc(-c3cn(Cc4ccc(-c5nnc(C(F)F)o5)cc4F)nn3)c2)C[C@H](C)N1` [Compound 4439, 2-(difluoromethyl)-5-(4-((4-(3-((3R,5S)-3,5-dimethylpiperazin-1-yl)phenyl)-1H-1,2,3-triazol-1-yl)methyl)-3-fluorophenyl)-1,3,4-oxadiazole], the IC50 at human recombinant HDAC1 (setting [1]) is above 50 µM; at human recombinant HDAC6 (setting [2]) it was 0.0273 µM. Moreover, the “HDAC6 selectivity (fold)” value at human recombinant HDAC6 (HDAC1 IC50 / HDAC6 IC50) is reported as 1831 fold.

Regarding `Fc1cc(-c2nnc(C(F)F)o2)ccc1Cn1cc(-c2cccc(Br)n2)nn1` [Compound 17263, 2-(4-((4-(6-bromopyridin-2-yl)-1H-1,2,3-triazol-1-yl)methyl)-3-fluorophenyl)-5-(difluoromethyl)-1,3,4-oxadiazole], the figures for the IC50 at human recombinant HDAC1 (setting [3]) and on human recombinant HDAC6 (setting [4]) were above 50 µM and 0.0444 µM, respectively. The “HDAC6 selectivity (fold)” value at human recombinant HDAC6 (HDAC6 over HDAC1) was 1126 fold.

In the case of `CC(C)(F)CN1CCC(c2cccc(-c3cn(Cc4ccc(-c5nnc(C(F)F)o5)cc4F)nn3)c2)CC1` [Compound 4349, 2-(difluoromethyl)-5-(3-fluoro-4-((4-(3-(1-(2-fluoro-2-methylpropyl)piperidin-4-yl)phenyl)-1H-1,2,3-triazol-1-yl)methyl)phenyl)-1,3,4-oxadiazole], the IC50 at human recombinant HDAC1 (setting [1]) was above 50 µM; on human recombinant HDAC6 (setting [2]), 0.363 µM. Further, the “HDAC6 selectivity (fold)” value at human recombinant HDAC6 (HDAC1 IC50 / HDAC6 IC50) came to 137 fold.

Values taken from patent publication US20230257372A1 (CHONG KUN DANG PHARMACEUTICAL CORP., priority 2020, published 2023).
